The target in data set [1] is T1, DNA topoisomerase 1 (Homo sapiens) (UniProt P11387).
T1 sequence (whole entry): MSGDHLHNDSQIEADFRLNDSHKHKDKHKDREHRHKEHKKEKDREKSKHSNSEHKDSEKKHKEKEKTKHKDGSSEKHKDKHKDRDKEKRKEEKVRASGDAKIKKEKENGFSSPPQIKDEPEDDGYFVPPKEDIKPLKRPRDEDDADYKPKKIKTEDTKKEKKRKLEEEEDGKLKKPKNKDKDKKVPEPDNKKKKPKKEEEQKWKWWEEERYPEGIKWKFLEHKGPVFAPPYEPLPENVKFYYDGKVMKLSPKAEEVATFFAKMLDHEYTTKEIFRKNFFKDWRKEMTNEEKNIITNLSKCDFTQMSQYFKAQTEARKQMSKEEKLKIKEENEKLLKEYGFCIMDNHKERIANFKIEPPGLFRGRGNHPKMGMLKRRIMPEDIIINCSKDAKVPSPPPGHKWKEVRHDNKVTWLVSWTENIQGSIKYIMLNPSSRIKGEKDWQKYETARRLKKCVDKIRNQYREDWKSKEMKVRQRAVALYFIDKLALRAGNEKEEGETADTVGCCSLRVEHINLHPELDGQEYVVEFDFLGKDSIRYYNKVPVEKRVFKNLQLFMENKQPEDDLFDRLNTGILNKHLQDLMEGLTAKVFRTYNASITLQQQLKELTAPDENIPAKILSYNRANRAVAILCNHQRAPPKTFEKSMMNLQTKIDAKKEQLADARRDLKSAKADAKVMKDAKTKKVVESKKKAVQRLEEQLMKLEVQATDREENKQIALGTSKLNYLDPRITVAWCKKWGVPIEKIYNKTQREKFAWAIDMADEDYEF
In words: Inhibition of human topoisomerase1-mediated DNA relaxation assessed as DNA intercalation at 5 to 50 uM using supercoiled pUC19 as substrate pretreated with substrate for 45 mins followed by enzyme addition measured by agarose gel electrophoresis.

The test system of data set [2] is Calf thymus DNA. In words: Binding affinity to calf thymus DNA assessed as change in melting temperature at drug/DNA ratio of 0.25 by spectrophotmetric method. It is filed as nucleic-acid assay. The following applies: Bos taurus.
The test system of data set [3] is SW-620. Description: Antiproliferative activity against human SW620 cells after 72 hrs by MTT assay. It is filed as functional, cell-based. The following applies: SW-620, 72 h. On the technique in general: Formazan colour is commonly taken as a measure of viable cells.
The next data set has as its system HepG2. In words: Antiproliferative activity against human HepG2 cells after 72 hrs by MTT assay. Format: functional, cell-based. The following applies: HepG2, 72 h.
A short description of data set [4]: Drug uptake in nucleus of human Caki2 cells at 50 uM measured after 5 hrs by Phalloidin CruzFluorTM 488 conjugate/propidium iodide staining based fluorescence microscopic analysis. It is filed as ADME, subcellular. As to conditions: caki-2, 5 h.
Another data set deals with BJ. Description: Antiproliferative activity against human BJ cells after 72 hrs by MTT assay. It is filed as cell-based.
Data set [5] has as its system Calf thymus DNA. Description: Binding affinity to calf thymus DNA at 1 to 50 uM by circular dichroism spectral analysis. Format: nucleic-acid assay. The following applies: Bos taurus. A general note: Circular dichroism is the unequal absorption of left and right circularly polarised light.
The next data set has as its system MCF7. Description: Antiproliferative activity against human MCF7 cells after 72 hrs by MTT assay. It is filed as functional, cell-based. The following applies: MCF7, 72 h.
In data set [6] the test system is HeLa. Description: Antiproliferative activity against human HeLa cells after 72 hrs by MTT assay. Format: functional, cell-based.
The nature of data set [7]: Drug uptake in human Caki2 cells at 50 uM measured after 5 hrs by Phalloidin CruzFluorTM 488 conjugate/propidium iodide staining based fluorescence microscopic analysis. Format: ADME, cell-based. The following applies: caki-2, 5 h.
Data set [8] deals with Calf thymus DNA. Description: Binding affinity to calf thymus DNA assessed as change in melting temperature at drug/DNA ratio of 0.5 by spectrophotmetric method. Format: nucleic-acid assay. As to conditions: Bos taurus.
Data set [9] is described as follows: Drug uptake in nucleolus of human Caki2 cells at 50 uM measured after 5 hrs by Phalloidin CruzFluorTM 488 conjugate/propidium iodide staining based fluorescence microscopic analysis. It is filed as ADME, subcellular. The following applies: caki-2, 5 h.
Another data set deals with CAKI-2. In words: Cytotoxicity against human Caki2 cells after 72 hrs by MTT assay. The following applies: CAKI-2, 72 h. It is filed as functional, cell-based.
Data set [10] addresses T1, DNA topoisomerase 1 (Homo sapiens). In words: Poison activity at human topoisomerase1 assessed as accumulation of nicked DNA at 20 uM using supercoiled pUC19 as substrate pretreated with substrate for 45 mins followed by enzyme addition measured by agarose gel electrophoresis relative to control.
In data set [11] the test system is Calf thymus DNA. Description: Binding affinity to calf thymus DNA assessed as change in melting temperature at drug/DNA ratio of 1 by spectrophotmetric method. Format: nucleic-acid assay. As to conditions: Bos taurus.
The test system of data set [12] is SW-620. In words: Cell cycle arrest in human SW620 cells assessed as accumulation at subG1 phase at 0.5 uM after 48 hrs by propidium iodide staining based flow cytometric method (reference value: 4.1 to 11.3 %). It is filed as functional. For orientation: A flow cytometer gives signals particle by particle.
Data set [13] relates to HeLa. In words: Cell cycle arrest in human HeLa cells assessed as accumulation at subG1 phase at 1 uM after 48 hrs by propidium iodide staining based flow cytometric method (reference value: 17 to 20.1 %). Format: functional.
Data set [14] deals with HeLa. In words: Induction of apoptosis in human HeLa cells assessed as activation of caspase-8 at 0.5 uM after 24 to 48 hrs by colorimetric assay. Format: functional, cell-based.
For data set [15], the system named is HeLa. In words: Cell cycle arrest in human HeLa cells assessed as accumulation at subG1 phase at 0.5 to 1 uM after 24 hrs by propidium iodide staining based flow cytometric method. It is filed as functional.
For data set [16], the system named is SW-620. Description: Cell cycle arrest in human SW620 cells assessed as accumulation at subG1 phase at 0.5 to 1 uM after 24 hrs by propidium iodide staining based flow cytometric method. It is filed as functional.
The subject of data set [17] is SW-620. In words: Induction of apoptosis in human SW620 cells assessed as activation of caspase-8 at 0.5 uM after 24 to 48 hrs by colorimetric assay. Format: functional, cell-based.
Data set [18] relates to SW-620. Description: Induction of apoptosis in human SW620 cells assessed as activation of caspase-2 at 0.5 uM measured after 48 hrs by colorimetric assay. Format: functional, cell-based.
Data set [19] has as its system HeLa. Description: Cell cycle arrest in human HeLa cells assessed as accumulation at subG1 phase at 0.5 uM after 48 hrs by propidium iodide staining based flow cytometric method (reference value: 17 to 20.1 %). Format: functional.
Data set [20] addresses DNA topoisomerase 2-alpha (Homo sapiens) (UniProt P11388). Description: Poison activity at human topoisomerase2 assessed as accumulation of linear DNA at 10 to 50 uM using supercoiled pUC19 as substrate pretreated with substrate for 45 mins followed by […] measured by ethidium bromide staining based agarose gel electrophoresis.
For data set [21], the system named is SW-620. In words: Cell cycle arrest in human SW620 cells assessed as accumulation at subG1 phase at 1 uM after 48 hrs by propidium iodide staining based flow cytometric method (reference value: 4.1 to 11.3 %). Format: functional.
The test system of data set [22] is SW-620. Description: Induction of apoptosis in human SW620 cells assessed as phenotypic changes after 24 to 48 hrs by microscopic analysis. It is filed as functional, cell-based.
The subject of data set [23] is SW-620. Description: Induction of apoptosis in human SW620 cells assessed as activation of caspase-6 at 0.5 uM measured after 48 hrs by colorimetric assay. Format: functional, cell-based.
Data set [24] in a line: Drug uptake in cytoplasm of human Caki2 cells at 50 uM measured after 5 hrs by Phalloidin CruzFluorTM 488 conjugate/propidium iodide staining based fluorescence microscopic analysis. The following applies: caki-2, 5 h. It is filed as ADME, subcellular.
The test system of data set [25] is HeLa. In words: Induction of apoptosis in human HeLa cells assessed as phenotypic changes after 24 to 48 hrs by microscopic analysis. Format: functional, cell-based.
Data set [26] relates to HeLa. In words: Induction of apoptosis in human HeLa cells assessed as activation of caspase-2 at 1 uM measured after 48 hrs by colorimetric assay. It is filed as functional, cell-based.
Data set [27] relates to HeLa. Description: Cell cycle arrest in human HeLa cells assessed as accumulation at subG1 phase at 5 uM after 48 hrs by propidium iodide staining based flow cytometric method (reference value: 17 to 20.1 %). It is filed as functional.
Data set [28] has as its system SW-620. In words: Induction of apoptosis in human SW620 cells assessed as activation of caspase-6 at 1 uM measured after 48 hrs by colorimetric assay. Format: functional, cell-based.
The test system of data set [29] is HeLa. In words: Cell cycle arrest in human HeLa cells assessed as accumulation at subG1 phase at 1 to 5 uM after 24 hrs by propidium iodide staining based flow cytometric method. It is filed as functional.
In data set [30] the test system is HeLa. In words: Induction of apoptosis in human HeLa cells assessed as activation of caspase-8 at 1 uM after 24 to 48 hrs by colorimetric assay. It is filed as functional, cell-based.
In data set [31] the test system is SW-620. In words: Cell cycle arrest in human SW620 cells assessed as accumulation at subG1 phase at 1 to 5 uM after 24 hrs by propidium iodide staining based flow cytometric method. It is filed as functional.
For data set [32], the system named is SW-620. In words: Induction of apoptosis in human SW620 cells assessed as activation of caspase-2 at 1 uM measured after 48 hrs by colorimetric assay. It is filed as functional, cell-based.
The test system of data set [33] is SW-620. Description: Cell cycle arrest in human SW620 cells assessed as accumulation at subG1 phase at 5 uM after 48 hrs by propidium iodide staining based flow cytometric method (reference value: 4.1 to 11.3 %). Format: functional.
The subject of data set [34] is SW-620. Description: Induction of apoptosis in human SW620 cells assessed as activation of caspase-8 at 1 uM after 24 to 48 hrs by colorimetric assay. It is filed as functional, cell-based.

The record followed here is ChEMBL document CHEMBL4219121, “Synthesis, antitumor activity and DNA binding features of benzothiazolyl and benzimidazolyl substituted isoindolines” (Bioorg Med Chem, 2018).

Each structure is given as a SMILES string. Calls of active or inactive are those of the source. The calls are words filed in the database; no cut-off is given here.

Chain of DNA topoisomerase 2-alpha (Homo sapiens) (P11388 whole entry): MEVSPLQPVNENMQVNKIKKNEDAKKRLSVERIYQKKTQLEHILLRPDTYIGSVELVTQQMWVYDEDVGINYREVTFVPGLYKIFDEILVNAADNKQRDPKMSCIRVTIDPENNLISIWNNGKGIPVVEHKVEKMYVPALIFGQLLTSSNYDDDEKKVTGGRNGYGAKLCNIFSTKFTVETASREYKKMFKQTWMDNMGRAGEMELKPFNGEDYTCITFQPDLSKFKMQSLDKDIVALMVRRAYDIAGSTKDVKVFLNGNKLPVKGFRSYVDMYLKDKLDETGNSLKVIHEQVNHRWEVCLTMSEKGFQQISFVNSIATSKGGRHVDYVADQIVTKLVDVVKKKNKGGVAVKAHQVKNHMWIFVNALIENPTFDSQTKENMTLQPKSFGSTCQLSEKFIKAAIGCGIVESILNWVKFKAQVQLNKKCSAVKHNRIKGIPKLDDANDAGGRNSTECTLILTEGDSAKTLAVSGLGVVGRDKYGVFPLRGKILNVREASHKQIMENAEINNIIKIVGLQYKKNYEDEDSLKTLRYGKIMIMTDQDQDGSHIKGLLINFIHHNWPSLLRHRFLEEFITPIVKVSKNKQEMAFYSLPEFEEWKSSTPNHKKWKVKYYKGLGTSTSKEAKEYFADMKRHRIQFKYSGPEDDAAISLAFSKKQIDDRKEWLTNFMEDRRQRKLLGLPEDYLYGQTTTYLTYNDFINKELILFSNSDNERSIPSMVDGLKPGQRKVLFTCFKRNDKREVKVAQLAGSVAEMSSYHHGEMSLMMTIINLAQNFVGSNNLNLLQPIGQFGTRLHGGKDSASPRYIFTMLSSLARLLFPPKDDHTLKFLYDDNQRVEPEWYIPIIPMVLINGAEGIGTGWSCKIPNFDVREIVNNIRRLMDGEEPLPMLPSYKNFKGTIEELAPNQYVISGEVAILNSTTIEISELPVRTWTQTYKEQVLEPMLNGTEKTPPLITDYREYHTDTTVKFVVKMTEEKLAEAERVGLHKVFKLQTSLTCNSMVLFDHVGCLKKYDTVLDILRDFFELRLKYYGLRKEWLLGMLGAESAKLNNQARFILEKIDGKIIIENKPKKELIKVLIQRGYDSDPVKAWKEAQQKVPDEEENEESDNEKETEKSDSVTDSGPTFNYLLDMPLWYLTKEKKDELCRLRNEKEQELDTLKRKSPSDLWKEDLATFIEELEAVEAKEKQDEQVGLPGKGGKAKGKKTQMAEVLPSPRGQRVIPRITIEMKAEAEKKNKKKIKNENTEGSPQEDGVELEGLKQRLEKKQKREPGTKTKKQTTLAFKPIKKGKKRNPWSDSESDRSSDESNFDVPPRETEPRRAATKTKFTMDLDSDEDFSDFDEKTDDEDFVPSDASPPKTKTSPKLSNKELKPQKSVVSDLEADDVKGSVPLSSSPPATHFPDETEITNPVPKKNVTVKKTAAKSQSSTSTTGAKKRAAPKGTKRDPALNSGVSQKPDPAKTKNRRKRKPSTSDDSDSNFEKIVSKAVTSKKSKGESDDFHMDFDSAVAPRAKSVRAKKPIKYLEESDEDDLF

Take `Cl.Cl.c1ccc2c(c1)CN(c1nc3ccc(C4=NCCN4)cc3[nH]1)/C2=N/c1nc2ccc(C3=NCCN3)cc2[nH]1`: the “inhibition (qualitative)” value in data set [1] was “Active”. The ΔTm with Calf thymus DNA [2] was 9.3 °C; in the data set on Calf thymus DNA [8], 18.5 °C. Further, the IC50 with SW-620 [3] amounted to 35000 nM; in the data set with HepG2 it was 9010 nM; in the data set on BJ, 22900 nM; in the data set on MCF7, 23400 nM; in the data set with HeLa [6], 15400 nM; with CAKI-2 it was 80200 nM. Also, the Drug uptake entry in data set [4], in data set [7] and in [9] was “Active” throughout. The result in the data set on Calf thymus DNA [5] was Active. In [10], the fold change (FC) came to 1.8.
As for `CC(C)NC(=N)c1ccc2nc(N3Cc4ccccc4C3=O)sc2c1.Cl`, the ΔTm in the data set with Calf thymus DNA [11] was determined as 4.4 °C; in the data set on Calf thymus DNA [2], 1.2 °C; in the data set with Calf thymus DNA [8] it was 3.2 °C. The Activity with SW-620 [12] is 33.9%; with HeLa [13] it was 38.1%; with HeLa [19], 45.7%; with SW-620 [21] it was 59.9%. The result in the data set on HeLa [14], in the data set on HeLa [15], in the data set with SW-620 [16] and with SW-620 [17] was inactive. Also, the IC50 in the data set with SW-620 [3] turned out to be 150 nM; with HepG2, 340 nM; in the data set with BJ it was 50 nM; in the data set on MCF7, 360 nM; with HeLa [6], 320 nM; in the data set on CAKI-2, 750 nM. Further, the Drug uptake entry in data set [4], in [7] and in data set [24] was “Active” throughout. Also, the outcome (in the data set with SW-620 [18]; in the data set on Calf thymus DNA [5]; in [20]; with SW-620 [22]; in the data set on SW-620 [23]; in the data set with HeLa [25]) was Active.
Take `Cl.O=C1c2ccccc2CN1c1nc2ccc(C3=NCCN3)cc2s1`: the ΔTm in the data set with Calf thymus DNA [11] came to 6.2 °C; in the data set on Calf thymus DNA [2] it was 1.8 °C; in the data set with Calf thymus DNA [8] it was 3.1 °C. Moreover, the Activity in the data set on HeLa [13] came out at 29.1%; in the data set on HeLa [27], 70.7%; in the data set on SW-620 [21] it was 34.4%; in the data set with SW-620 [33], 85.9%. The outcome (in the data set on HeLa [26]; in the data set with SW-620 [28]; in the data set with Calf thymus DNA [5]; in the data set on SW-620 [32]; in data set [20]; in the data set on SW-620 [22]) was Active. In addition, the outcome with HeLa [25] was Active. Moreover, the IC50 in the data set on SW-620 [3] was determined as 740 nM; with HepG2, 780 nM; in the data set with BJ, 200 nM; with MCF7, 700 nM; with HeLa [6], 1000 nM; with CAKI-2, 1500 nM. The result with HeLa [29], in the data set on HeLa [30], in the data set with SW-620 [31] and with SW-620 [34] was inactive. Moreover, the Drug uptake result in [4], in data set [7] and in data set [24] was “Active” in each case.

What is called ΔTm is the shift of the melting midpoint relative to a reference. One may read the IC50 as the point on the concentration scale where inhibition reaches its midpoint. Low readings indicate greater potency in that assay, high ones weaker potency in that assay.
